These results are taken from patent US20100168037A1 (priority 2002, published 2010).

Structures are written as SMILES. pKd: −log10 of the molar value. Where two headings read alike, the source gives them in different places. Where a SMILES comes first, the peptide text is derived from it. [ ]: non-standard residue; d: D form.

One data set deals with BoNT/A (Clostridium botulinum, UniProt P0DPI0). The data set is classed as binding.
Another data set addresses BoNT/B (Clostridium botulinum, UniProt P10844). The data set is classed as binding.
Another data set has as its target BoNT/B neurotoxin (Clostridium botulinum, UniProt P10844). The data set is classed as binding.
In the next data set the target is BotB complex (Clostridium botulinum, UniProt P10844). The data set is classed as binding.
Sequence of BotB complex (P10844 2-1291 limits assumed, one chain of several): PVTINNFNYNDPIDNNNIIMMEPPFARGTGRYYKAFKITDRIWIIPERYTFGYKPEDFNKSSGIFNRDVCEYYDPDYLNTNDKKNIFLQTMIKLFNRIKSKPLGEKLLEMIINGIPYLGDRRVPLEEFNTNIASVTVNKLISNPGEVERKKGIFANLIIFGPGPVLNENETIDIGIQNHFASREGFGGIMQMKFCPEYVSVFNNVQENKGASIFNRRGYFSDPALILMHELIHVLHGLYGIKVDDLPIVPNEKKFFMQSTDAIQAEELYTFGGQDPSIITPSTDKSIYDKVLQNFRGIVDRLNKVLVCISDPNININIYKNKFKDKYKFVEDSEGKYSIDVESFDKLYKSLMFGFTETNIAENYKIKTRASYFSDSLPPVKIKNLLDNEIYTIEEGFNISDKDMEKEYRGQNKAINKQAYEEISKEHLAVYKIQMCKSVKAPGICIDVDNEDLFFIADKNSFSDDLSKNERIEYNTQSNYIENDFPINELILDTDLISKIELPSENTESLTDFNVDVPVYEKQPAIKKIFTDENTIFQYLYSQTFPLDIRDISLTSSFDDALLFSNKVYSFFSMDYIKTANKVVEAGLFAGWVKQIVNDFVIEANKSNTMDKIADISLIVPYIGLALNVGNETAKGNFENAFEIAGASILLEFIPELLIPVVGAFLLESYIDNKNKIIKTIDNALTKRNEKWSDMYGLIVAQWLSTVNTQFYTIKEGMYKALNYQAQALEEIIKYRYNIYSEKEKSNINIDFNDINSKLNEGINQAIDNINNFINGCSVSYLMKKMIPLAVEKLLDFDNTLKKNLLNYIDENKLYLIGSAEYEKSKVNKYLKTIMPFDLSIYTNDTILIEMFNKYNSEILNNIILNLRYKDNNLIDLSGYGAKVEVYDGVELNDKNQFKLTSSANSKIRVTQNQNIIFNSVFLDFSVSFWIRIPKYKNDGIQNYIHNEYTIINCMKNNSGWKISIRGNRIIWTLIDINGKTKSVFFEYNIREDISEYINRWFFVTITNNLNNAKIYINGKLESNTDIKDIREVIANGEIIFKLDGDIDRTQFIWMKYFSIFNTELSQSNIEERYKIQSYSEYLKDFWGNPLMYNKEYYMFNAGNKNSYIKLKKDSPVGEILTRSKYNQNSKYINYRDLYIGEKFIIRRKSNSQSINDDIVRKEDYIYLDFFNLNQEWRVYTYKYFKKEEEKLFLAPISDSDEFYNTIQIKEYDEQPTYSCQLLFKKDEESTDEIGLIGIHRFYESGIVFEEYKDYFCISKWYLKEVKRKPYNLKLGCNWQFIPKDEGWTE
For data set [1], the target named is T1, ConA (Canavalia ensiformis, Jack Bean Lectin) (Canavalia ensiformis, UniProt P02866).
T1 construct: purchased EY Laboratories (San Mateo, Calif.)
Briefly: Bead library screen, binding of AP-ConA. The conditions noted are these: peptide on TentaGel bead; AP / NBT-BCIP detection.

For another data set, the target named is RCA60 (Ricinus communis, UniProt P02879). The class given is binding.
The conditions of data set [2]: mouse, in vivo.

Sequence of BoNT/A (P0DPI0 whole entry, looked up): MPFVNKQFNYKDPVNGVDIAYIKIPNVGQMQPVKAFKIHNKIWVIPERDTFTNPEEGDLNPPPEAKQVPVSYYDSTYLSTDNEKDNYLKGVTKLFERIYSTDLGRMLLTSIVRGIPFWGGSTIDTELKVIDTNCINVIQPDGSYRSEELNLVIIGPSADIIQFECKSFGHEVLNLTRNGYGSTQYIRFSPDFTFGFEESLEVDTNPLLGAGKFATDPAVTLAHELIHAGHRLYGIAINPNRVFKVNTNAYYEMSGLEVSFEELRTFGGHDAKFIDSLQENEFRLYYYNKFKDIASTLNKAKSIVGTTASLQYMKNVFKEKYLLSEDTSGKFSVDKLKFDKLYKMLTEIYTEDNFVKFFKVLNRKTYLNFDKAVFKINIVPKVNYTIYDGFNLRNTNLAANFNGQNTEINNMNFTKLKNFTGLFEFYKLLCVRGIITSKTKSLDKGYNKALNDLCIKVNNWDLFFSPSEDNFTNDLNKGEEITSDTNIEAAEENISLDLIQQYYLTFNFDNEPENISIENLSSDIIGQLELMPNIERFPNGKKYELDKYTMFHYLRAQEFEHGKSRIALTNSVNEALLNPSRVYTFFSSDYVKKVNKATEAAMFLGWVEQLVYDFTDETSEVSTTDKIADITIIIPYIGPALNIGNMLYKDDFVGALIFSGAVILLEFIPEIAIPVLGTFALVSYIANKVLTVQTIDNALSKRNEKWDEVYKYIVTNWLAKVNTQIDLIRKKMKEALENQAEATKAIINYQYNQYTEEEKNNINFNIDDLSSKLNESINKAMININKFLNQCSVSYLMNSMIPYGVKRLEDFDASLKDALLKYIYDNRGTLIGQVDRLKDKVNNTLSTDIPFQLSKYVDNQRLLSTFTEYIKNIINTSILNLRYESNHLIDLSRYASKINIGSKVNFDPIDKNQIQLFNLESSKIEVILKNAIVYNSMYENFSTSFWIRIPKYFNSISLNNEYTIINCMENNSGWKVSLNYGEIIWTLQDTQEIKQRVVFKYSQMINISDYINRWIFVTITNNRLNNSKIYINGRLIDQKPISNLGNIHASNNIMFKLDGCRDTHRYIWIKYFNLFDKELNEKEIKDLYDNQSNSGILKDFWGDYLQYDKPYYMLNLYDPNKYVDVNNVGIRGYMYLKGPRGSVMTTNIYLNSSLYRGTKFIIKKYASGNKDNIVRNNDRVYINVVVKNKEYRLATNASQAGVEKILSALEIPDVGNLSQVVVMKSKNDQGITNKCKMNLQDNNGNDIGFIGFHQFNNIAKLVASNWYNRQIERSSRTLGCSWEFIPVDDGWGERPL
Sequence of BoNT/B neurotoxin (P10844 whole entry, looked up): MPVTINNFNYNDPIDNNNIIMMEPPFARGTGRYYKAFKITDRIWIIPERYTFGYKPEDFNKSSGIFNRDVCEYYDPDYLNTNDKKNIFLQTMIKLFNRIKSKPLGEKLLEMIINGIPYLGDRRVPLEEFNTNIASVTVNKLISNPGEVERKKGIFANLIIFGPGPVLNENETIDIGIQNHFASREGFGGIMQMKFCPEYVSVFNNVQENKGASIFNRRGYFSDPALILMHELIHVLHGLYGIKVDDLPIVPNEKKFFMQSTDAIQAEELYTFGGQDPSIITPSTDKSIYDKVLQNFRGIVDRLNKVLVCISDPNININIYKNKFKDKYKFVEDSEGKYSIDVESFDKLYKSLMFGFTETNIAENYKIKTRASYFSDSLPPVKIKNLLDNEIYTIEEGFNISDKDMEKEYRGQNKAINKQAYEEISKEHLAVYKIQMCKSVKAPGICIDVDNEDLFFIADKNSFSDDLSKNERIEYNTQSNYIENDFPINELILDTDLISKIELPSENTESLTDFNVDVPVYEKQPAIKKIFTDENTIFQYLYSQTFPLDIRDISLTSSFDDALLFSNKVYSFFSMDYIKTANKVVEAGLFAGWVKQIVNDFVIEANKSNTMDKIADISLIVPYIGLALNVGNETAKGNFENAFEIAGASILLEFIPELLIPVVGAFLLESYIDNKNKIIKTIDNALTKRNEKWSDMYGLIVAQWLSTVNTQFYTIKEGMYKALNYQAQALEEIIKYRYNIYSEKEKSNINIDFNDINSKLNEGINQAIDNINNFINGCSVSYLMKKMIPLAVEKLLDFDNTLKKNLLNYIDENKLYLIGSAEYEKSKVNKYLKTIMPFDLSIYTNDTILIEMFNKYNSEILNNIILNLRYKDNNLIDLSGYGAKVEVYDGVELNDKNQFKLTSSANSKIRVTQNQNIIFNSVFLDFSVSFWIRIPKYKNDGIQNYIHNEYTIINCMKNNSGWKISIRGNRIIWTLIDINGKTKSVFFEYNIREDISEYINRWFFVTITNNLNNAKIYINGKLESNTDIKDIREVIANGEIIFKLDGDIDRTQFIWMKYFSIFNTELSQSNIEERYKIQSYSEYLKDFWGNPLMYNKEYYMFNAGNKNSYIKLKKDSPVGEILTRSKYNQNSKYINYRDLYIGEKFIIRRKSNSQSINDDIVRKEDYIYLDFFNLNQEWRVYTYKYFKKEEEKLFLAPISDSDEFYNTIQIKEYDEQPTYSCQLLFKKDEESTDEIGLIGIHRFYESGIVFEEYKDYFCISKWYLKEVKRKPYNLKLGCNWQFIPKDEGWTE

For the molecule `C[C@@H](NC(=O)CN)C(=O)N[C@H](Cc1ccccc1)C(=O)N[C@H](Cc1ccccc1)C(=O)N[C@H](Cc1c[nH]c2ccccc12)C(=O)N[C@H](CCCCN)C(=O)N[C@H](CCCCN)C(=O)N[C@H](CCCCN)C(=O)O` [GAFFW] (H-G[dA][dF][dF][dW][dK][dK][dK]-OH; C-terminus assumed), the “binding of BoNT/A in the microplate binding assay” value on BoNT/A was “bound”. Also, on BoNT/B, the “binding of BoNT/B in the microplate binding assay” value is recorded as “bound”. The “binding of BoNT/B to D-peptide bead (positive bead sequenced)” value (“binding of BoNT/B to D-peptide bead” for short) on BoNT/B neurotoxin is given as “identified”.

A word on the pKd: it is −log10 of the Kd, conventionally taken in molar units. Turning to `NCCCC[C@@H](NC(=O)[C@@H](CCCCN)NC(=O)[C@@H](CCCCN)NC(=O)[C@@H](Cc1ccc(O)cc1)NC(=O)[C@@H](Cc1ccccc1)NC(=O)[C@@H](Cc1ccccc1)NC(=O)[C@@H](Cc1ccccc1)NC(=O)CN)C(=O)O` [GFFFY] (H-G[dF][dF][dF][dY][dK][dK][dK]-OH; C-terminus assumed), the “Saturation Concentration” value at BoNT/A is 3 to 4 nM; at BotB complex, 2.3 nM; at BoNT/B, 3 to 4 nM. Besides, the “binding of BoNT/A in the microplate binding assay” value on BoNT/A is on record as “bound”. For the same molecule, the negative-log Kd (pKd) at BoNT/A (read-out: Estimated Kd) was 8.70 to 9.00; on BotB complex (read-out: Estimated Kd), 10.66; on BoNT/B (read-out: Estimated Kd), 8.70 to 9.00. Further, the “binding of BotB complex in the microplate binding assay” value on BotB complex is listed as “bound”. Further, the “binding of BoNT/B in the microplate binding assay” value on BoNT/B was “bound”. Moreover, the “binding of BoNT/B to D-peptide bead” value at BoNT/B neurotoxin was “binding”.

Take `NCCCC[C@@H](NC(=O)[C@@H](CCCCN)NC(=O)[C@@H](CCCCN)NC(=O)[C@@H](Cc1ccccc1)NC(=O)[C@@H](Cc1ccccc1)NC(=O)[C@@H](Cc1ccc(O)cc1)NC(=O)[C@@H](Cc1ccccc1)NC(=O)CN)C(=O)O` [GFYFF] (H-G[dF][dY][dF][dF][dK][dK][dK]-OH; C-terminus assumed): the “binding of ConA to D-peptide bead (positive bead sequenced)” value in data set [1] is recorded as “binding”. Also, the “Saturation Concentration” value at RCA60 was 100 nM. The “binding of BoNT/B to D-peptide bead” value at BoNT/B neurotoxin is “binding”.

As for `C[C@@H](N)C(=O)N[C@H](Cc1ccccc1)C(=O)N[C@H](Cc1ccc(O)cc1)C(=O)N[C@H](C)C(=O)N[C@H](Cc1ccc(O)cc1)C(=O)N[C@H](CCCCN)C(=O)N[C@H](CCCCN)C(=O)N[C@H](CCCCN)C(=O)O` [AFYAY] (H-[dA][dF][dY][dA][dY][dK][dK][dK]-OH; C-terminus assumed), the “Saturation Concentration” value on RCA60 is recorded as 100 nM.

`NCCCC[C@@H](NC(=O)[C@@H](CCCCN)NC(=O)[C@@H](CCCCN)NC(=O)[C@@H](Cc1ccc(O)cc1)NC(=O)CNC(=O)[C@@H](Cc1c[nH]c2ccccc12)NC(=O)[C@@H](Cc1ccccc1)NC(=O)CN)C(=O)O` [GFWGY] (H-G[dF][dW]G[dY][dK][dK][dK]-OH): the signs of toxicity entry in data set [2] (ip) and in data set [2] (iv) was “no apparent toxicity” throughout.

For `NCCCC[C@@H](NC(=O)[C@@H](CCCCN)NC(=O)[C@@H](CCCCN)NC(=O)[C@@H](Cc1ccc(O)cc1)NC(=O)[C@@H](Cc1c[nH]c2ccccc12)NC(=O)CNC(=O)[C@@H](Cc1ccccc1)NC(=O)CN)C(=O)O` [GFGWY] (H-G[dF]G[dW][dY][dK][dK][dK]-OH; C-terminus assumed), the “binding of BoNT/A in the microplate binding assay” value at BoNT/A is “bound”. At BoNT/B, the “binding of BoNT/B in the microplate binding assay” value is on record as “bound”. Also, at BoNT/B neurotoxin, the “binding of BoNT/B to D-peptide bead” value is recorded as “identified”.
